# Paper PMC6017703, “Synthesis and Biological Evaluation of New Thiosemicarbazone Derivative Schiff Bases as Monoamine Oxidase Inhibitory Agents” (Molecules : A Journal of Synthetic Chemistry and Natural …, 2017)
# Target: T1, monoamine oxidase A (MAO-A) (Homo sapiens, UniProt P21397)
# T1 construct: gene MAOA; recombinant MAO-A
# T1 sequence (P21397 1-527): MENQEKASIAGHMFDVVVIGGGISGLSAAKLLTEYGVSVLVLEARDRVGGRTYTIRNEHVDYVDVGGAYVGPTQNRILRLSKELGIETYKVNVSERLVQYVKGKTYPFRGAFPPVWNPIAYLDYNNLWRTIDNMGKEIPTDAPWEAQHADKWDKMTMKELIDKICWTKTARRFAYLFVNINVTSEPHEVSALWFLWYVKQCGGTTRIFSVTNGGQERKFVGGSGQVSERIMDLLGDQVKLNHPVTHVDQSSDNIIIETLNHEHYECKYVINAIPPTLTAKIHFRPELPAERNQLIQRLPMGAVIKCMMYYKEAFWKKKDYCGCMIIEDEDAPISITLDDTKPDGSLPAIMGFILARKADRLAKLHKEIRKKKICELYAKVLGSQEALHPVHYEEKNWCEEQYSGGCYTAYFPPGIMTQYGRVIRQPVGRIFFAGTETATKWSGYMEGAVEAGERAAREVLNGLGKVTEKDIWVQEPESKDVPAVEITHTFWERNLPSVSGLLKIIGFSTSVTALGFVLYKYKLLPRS
# Assay: fluorometric Ampliflu Red/HRP assay with tyramine; Lineweaver-Burk kinetics (IC50 also […])
# Assay type: biochemical
compound,measurement,value
"S=C(NN=Cc1ccc(Sc2ccc(Cl)cc2)cc1)NC1CCCCC1 [B24, N-Cyclohexyl-2-[4-[(4-chlorophenyl)thio]benzylidene]hydrazine-1-carbothioamide]",Ki,142 nM
